In assay [1] the test system is Myotonic Dystrophy 1 affected patient fibroblasts (Coriel GM04602; 1600 CTG repeats). Put plainly: DM1 foci reduction assay (EC50 assay; CAG10-Cy3 FISH, foci per nucleus). In kind it is cell-based. The gist of the method:
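Foci per nucleus counted by 20× imaging of 4 areas per well, after overnight FISH with 5 nM CAG10-Cy3 and DAPI staining of fixed, permeabilized cells. DM1 fibroblasts (GM04602, 1600 CTG) were dosed 48 h at 37 °C, 8 points, 3-fold dilutions, 3 μM top concentration.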

The next assay concerns F35T cells. Description: Foci reduction in FECD (CAG10-Cy3 FISH, foci per nucleus). In kind it is cell-based. The gist of the method:
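Foci per nucleus were counted by imaging after overnight CAG10-Cy3 FISH at 37 °C (30% formamide, 2×SSC) with DAPI counterstain, on PFA-fixed, ethanol-permeabilized F35T cells. The cells, seeded at 5000 per well in supplemented Opti-MEM, had received 8-point compound dilutions for 48 h at 37 °C.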

Where [2] appears, read: Homo sapiens, Fibroblast; DM1 patient fibroblasts, 48 h treatment, foci per nucleus; read-out: DM1 EC50, 48 h.
The mark [3] stands for this setting: F35T cells, 48 h treatment, foci per nucleus; read-out: FECD EC50, 48 h.

Each structure is given as a SMILES string. Where two headings read alike, the source gives them in different places. Bounds are passed on as bounds.

By EC50 is commonly meant the concentration at which the effect is half-maximal. As for `CN1CCC(N2CCN(C(=O)CCNC(=O)c3nc(NC(=O)c4cc(NC(=O)CCNC(=O)c5nc(NC(=O)CCCNC(=O)c6cc(NC(=O)c7nc(NC(=O)CCNC(=O)c8cc(NC(=O)c9nccn9C)cn8C)cn7C)cn6C)cn5C)cn4C)cn3C)CC2)CC1` [Compound B-120], the EC50 in assay [1] (setting [2]) was 500 to 1000 nM; in the assay on F35T cells (setting [3]), more than 1000 nM.
For `C=C(NCCC(=O)Nc1cc(C(=O)Nc2cn(C)c(C(=O)NCCC(=O)NCCC)n2)n(C)c1)c1nc(NC(=O)CCCNC(=O)c2cc(NC(=O)c3nc(NC(=O)CCNC(=O)c4cc(NC(=O)c5nccn5C)cn4C)cn3C)cn2CCCn2cc(COCCOCCOCCOC)nn2)cn1C` [Compound B-401], the EC50 in assay [1] (setting [2]) was 100 to 500 nM; in the assay on F35T cells (setting [3]), less than 100 nM.
Consider `CCCNC(=O)CCNC(=O)c1nc(NC(=O)c2cc(NC(=O)CCNC(=O)c3nc(NC(=O)CCCNC(=O)c4cc(NC(=O)c5nc(NC(=O)CCNC(=O)c6cc(NC(=O)c7nccn7C)cn6C)cn5C)cn4CCC)cn3C)cn2C)cn1C` [Compound B-320], for which the EC50 (in assay [1] (setting [2]); with F35T cells (setting [3])) was less than 100 nM throughout.
Take `Cn1cc(NC(=O)c2nc(NC(=O)CCNC(=O)c3cc(NC(=O)c4nccn4C)cn3C)cn2C)cc1C(=O)NCCCC(=O)Nc1cn(C)c(C(=O)NCCC(=O)Nc2cc(C(=O)Nc3cn(C)c(C(=O)NCCCNCC#Cc4ccc(C(=O)O)cc4)n3)n(C)c2)n1` [Compound B-249]: the EC50 in assay [1] (setting [2]) is 100 to 500 nM; in the assay with F35T cells (setting [3]), less than 100 nM.
In the case of `Cn1cc(NC(=O)c2nc(NC(=O)CCNC(=O)c3cc(NC(=O)c4nccn4C)cn3C)cn2C)cc1C(=O)NCCCC(=O)Nc1cn(C)c(C(=O)NCCC(=O)Nc2cc(C(=O)Nc3cn(C)c(C(=O)NCCCN4CCNCC4)n3)n(C)c2)n1` [Compound B-207], the EC50 in assay [1] (setting [2]) was 100 to 500 nM; in the assay with F35T cells (setting [3]), more than 1000 nM.
Consider `Cn1cc(NC(=O)c2nc(NC(=O)CCNC(=O)c3cc(NC(=O)c4nccn4C)cn3C)cn2C)cc1C(=O)NCCCC(=O)Nc1cn(C)c(C(=O)NCCC(=O)Nc2cc(C(=O)Nc3cn(C)c(C(=O)NCCC(=O)N4CCNCC4)n3)n(C)c2)n1` [Compound B-49], for which the EC50 (in assay [1] (setting [2]); with F35T cells (setting [3])) was 100 to 500 nM each time.
Turning to `Cn1cc(NC(=O)c2nc(NC(=O)CCNC(=O)c3cc(NC(=O)c4nccn4C)cn3C)cn2C)cc1C(=O)NCCCC(=O)Nc1cn(C)c(C(=O)NCCC(=O)Nc2cc(C(=O)Nc3cn(C)c(C(=O)NCCC(=O)NCCOCCOc4ccc(N)cc4)n3)n(C)c2)n1` [Compound B-16], the EC50 (in assay [1] (setting [2]); with F35T cells (setting [3])) was 100 to 500 nM in each case.
For the compound `CCNC(=O)CCNC(=O)c1nc(NC(=O)c2cc(NC(=O)CCNC(=O)c3nc(NC(=O)CCCNC(=O)c4cc(NC(=O)c5nc(NC(=O)CCNC(=O)c6cc(NC(=O)c7nccn7C)cn6C)cn5C)cn4C)cn3C)cn2C)cn1C` [Compound B-311], the EC50 in assay [1] (setting [2]) is 100 to 500 nM; in the assay on F35T cells (setting [3]), less than 100 nM.
In the case of `Cn1cc(NC(=O)c2nc(NC(=O)CCNC(=O)c3cc(NC(=O)c4nccn4C)cn3C)cn2C)cc1C(=O)NCCCC(=O)Nc1cn(C)c(C(=O)NCCC(=O)Nc2cc(C(=O)Nc3cn(C)c(C(=O)NCC#Cc4ccccc4)n3)n(C)c2)n1` [Compound B-245], the EC50 (in assay [1] (setting [2]); in the assay on F35T cells (setting [3])) was less than 100 nM each time.
Consider `CCCCCC(=O)N1CCC(C#CC#CC2CCN(CCOCCOCCOCCNC(=O)CCNC(=O)c3nc(NC(=O)c4cc(NC(=O)CCNC(=O)c5nc(NC(=O)CCCNC(=O)c6cc(NC(=O)c7nc(NC(=O)CCNC(=O)c8cc(NC(=O)c9nccn9C)cn8C)cn7C)cn6C)cn5C)cn4C)cn3C)CC2)CC1` [Compound B-171], for which the EC50 in assay [1] (setting [2]) is less than 100 nM; in the assay with F35T cells (setting [3]) it was 100 to 500 nM.
For `CC(C)CCC(=O)N1CCC(C#CC#CC2CCN(CCOCCOCCOCCNC(=O)CCNC(=O)c3nc(NC(=O)c4cc(NC(=O)CCNC(=O)c5nc(NC(=O)CCCNC(=O)c6cc(NC(=O)c7nc(NC(=O)CCNC(=O)c8cc(NC(=O)c9nccn9C)cn8C)cn7C)cn6C)cn5C)cn4C)cn3C)CC2)CC1` [Compound B-169], in that order: 100 to 500 nM and 100 to 500 nM.
For `CC(=O)N1CCC(CN2CCN(C(=O)CCNC(=O)c3nc(NC(=O)c4cc(NC(=O)CCNC(=O)c5nc(NC(=O)CCCNC(=O)c6cc(NC(=O)c7nc(NC(=O)CCNC(=O)c8cc(NC(=O)c9nccn9C)cn8C)cn7C)cn6C)cn5C)cn4C)cn3C)CC2)CC1` [Compound B-115] the same measures were 100 to 500 nM and 500 to 1000 nM.
For the compound `CN(C)CCCCn1cc(NC(=O)c2nc(NC(=O)CCNC(=O)c3cc(NC(=O)c4nccn4C)cn3C)cn2C)cc1C(=O)NCCCC(=O)Nc1cn(C)c(C(=O)NCCC(=O)Nc2cc(C(=O)Nc3cn(C)c(C(=O)NCCC(=O)N4CCCCC4)n3)n(C)c2)n1` [Compound B-428], the EC50 in assay [1] (Homo sapiens, Fibroblast; DM1 patient fibroblasts, foci per nucleus, 48 h treatment; read-out: DM1 EC50, 48 h) is less than 100 nM; in the assay on F35T cells (F35T cells, foci per nucleus, 48 h treatment; read-out: FECD EC50, 48 h), less than 100 nM.
For `CC(Nc1cc(C(=O)NCCC(=O)Nc2cn(C)c(C(=O)Nc3cc(C(=O)NCCCC(=O)Nc4cn(C)c(C(=O)Nc5cc(C(=O)NCCC(=O)Nc6cn(C)c(C(=O)NCCC(=O)NCCOCCOCCOCCOCCOCCNC(=O)[C@@H](N)CO)n6)n(C)c5)n4)n(C)c3)n2)n(C)c1)c1nccn1C` (stereo partly drawn) [Compound B-111], the EC50 in assay [1] (setting [2]) was 500 to 1000 nM; with F35T cells (setting [3]) it was more than 1000 nM.
As to `CCOC(=O)CCNC(=O)c1nc(NC(=O)c2cc(NC(=O)CCNC(=O)c3nc(NC(=O)CCCNC(=O)c4cc(NC(=O)c5nc(NC(=O)CCNC(=O)c6cc(NC(=O)c7nccn7C)cn6C)cn5C)c[nH]4)cn3C)cn2C)cn1C` [Compound B-395], the results for the EC50 (in assay [1] (setting [2]); in the assay on F35T cells (setting [3])) were 500 to 1000 nM and 100 to 500 nM, respectively.
For `CCCNC(=O)c1nc(NC(=O)CCNC(=O)c2cc(NC(=O)c3nc(NC(=O)CCCNC(=O)c4cc(NC(=O)c5nc(NC(=O)CCNC(=O)c6cc(NC(=O)c7nccn7C)cn6C)cn5C)cn4C)cn3C)cn2C)cn1C` [Compound B-44] the same measures were more than 1000 nM and more than 1000 nM.
As to `Cn1cc(NC(=O)c2nc(NC(=O)CCNC(=O)c3cc(NC(=O)c4nccn4C)cn3C)cn2C)cc1C(=O)NCCCC(=O)Nc1cn(C)c(C(=O)NCCC(=O)Nc2cc(C(=O)Nc3cn(C)c(C(=O)NCCCN(CC#Cc4ccc(C(=O)O)cc4)CCCN)n3)n(C)c2)n1` [Compound B-384], the EC50 (in assay [1] (setting [2]); in the assay with F35T cells (setting [3])) was 100 to 500 nM each time.
Consider `Cn1cc(NC(=O)c2nc(NC(=O)CCNC(=O)c3cc(NC(=O)c4nccn4C)cn3C)cn2C)cc1C(=O)NCCCC(=O)Nc1cn(C)c(C(=O)NCCC(=O)Nc2cc(C(=O)Nc3cn(C)c(C(=O)NCCC(=O)NCCOCCOCCOCCN4CCC(C#CC#CC5CCN(C(=O)c6ccc(C(C)(C)C)cc6)CC5)CC4)n3)n(C)c2)n1` [Compound B-175], for which the half-maximal effective concentration (EC50) (in assay [1] (setting [2]); with F35T cells (setting [3])) was 100 to 500 nM each time.
As for `CN(C)Cc1ncc(C2CN(C(=O)CCNC(=O)c3nc(NC(=O)c4cc(NC(=O)CCNC(=O)c5nc(NC(=O)CCCNC(=O)c6cc(NC(=O)c7nc(NC(=O)CCNC(=O)c8cc(NC(=O)c9nccn9C)cn8C)cn7C)cn6C)cn5C)cn4C)cn3C)C2)[nH]1` [Compound B-69], the EC50 (in assay [1] (setting [2]); with F35T cells (setting [3])) was 100 to 500 nM in each case.
For `Cn1cc(NC(=O)c2nc(NC(=O)CCNC(=O)c3cc(NC(=O)c4nccn4C)cn3C)cn2C)cc1C(=O)NCCCC(=O)Nc1cn(C)c(C(=O)NCCC(=O)Nc2cc(C(=O)Nc3cn(C)c(C(=O)NCCC(=O)NCCOCCN4CCC(C#CC#CC5CCNCC5)CC4)n3)n(C)c2)n1` [Compound B-20], the EC50 (in assay [1] (setting [2]); in the assay with F35T cells (setting [3])) was 500 to 1000 nM each time.
As to `Cn1cc(NC(=O)c2nc(NC(=O)CCNC(=O)c3cc(NC(=O)c4nccn4C)cn3C)cn2C)cc1C(=O)NCCCC(=O)Nc1cn(C)c(C(=O)NCCC(=O)Nc2cc(C(=O)Nc3cn(C)c(C(=O)NCCC(=O)N4CCC(C5CNC5)CC4)n3)n(C)c2)n1` [Compound B-142], the figures for the EC50 (in assay [1] (setting [2]); in the assay with F35T cells (setting [3])) were 100 to 500 nM and 500 to 1000 nM, respectively.

Source of the values: patent US20250368628A1, “METHODS AND COMPOUNDS FOR MODULATING INHERITED GENETIC DISEASES” (Design Therapeutics, Inc., priority 2022, published 2025).
